Data published in publication PMC12728655, “Engineering an Artificial Myxopyronin Derivative with Enhanced Metabolic Stability via Mutasynthesis” (JACS Au, 2025).
Converted amounts (≈) assume the structure as drawn. Where two headings read alike, the source gives them in different places.

Columns and labels:
in vitro [1] = format: in vitro ADME; settings: Wistar, rat, plasma
Description: (§1) To determine stability in plasma, the compound (1 µM) was incubated with pooled CD-1 mouse/human or Wistar rat plasma (Neo Biotech, Nanterre, France). Samples were taken by […]
(§2) 10% methanol/acetonitrile). The plasma stability of procain, propantheline and diltiazem were determined in parallel to confirm the enzymatic activity. Samples were stored on ice until the end of the incubation and precipitated protein was removed by centrifugation (15 min, 4 °C, 4,000 g, two centrifugation steps). Concentration of the remaining test compound at the different time points was analyzed by HPLC-MS/MS (Vanquish Flex coupled to a TSQ Altis Plus, Thermo Fisher, Dreieich, Germany). The plasma stability of procain, propantheline and diltiazem were determined in parallel to confirm the enzymatic activity. […]

M^R -S. aureus N315 = experiment: microbe, parasite or virus in culture; format: cell-based; settings: Staphylococcus aureus
wt-S. aureus Newman = format: cell-based; settings: Staphylococcus aureus
in vitro [2] = settings: human, microsomes, Liver microsomes Clint
in vitro [3] = format: in vitro ADME; settings: mouse, hepatocytes
Description: Metabolic stability in mouse hepatocytes
For the evaluation of combined phase I and phase II metabolic stability, the compound (1 μM) was incubated with 0.25 x 10^6 cells/mL of pooled mouse hepatocytes (Xenotech, Kansas City, USA). Cells were thawed in Leibovitz’s L-15 medium without phenol red (ThermoFisher Scientific, Waltham, USA). Briefly, cells were transferred into 50 mL of medium, followed by centrifugation at 55 g for 3 min. Supernatant was discarded and the cell count determined after gently resuspending the cell pellet in 1 mL of medium. Hepatocytes were diluted to 0.5 x 10^6 cells/mL and incubated at 37 °C, 700 rpm for 10 min, to achieve the desired final cell count after addition of an equal volume of test compounds in medium, leading to final test concentration of 1 µM at 1% DMSO. Samples were incubated at 37 °C, for 240 min, 700 rpm and the incubation was stopped after defined time points by precipitation of aliquots in 4 […]
methanol/acetonitrile). The metabolic stability of testosterone, verapamil, ketoconazole and 7-hydroxycoumarine were determined in parallel to confirm the enzymatic activity of mouse hepatocytes. Samples were stored on ice until the end of the incubation and precipitated protein was removed by centrif ugation (15 min, 4 °C, 4. 000 g). […]

Cytotoxicity assay (MTT) = format: cell-based; settings: human, HepG2 cells, HepG2, 100 μM
Description: (§3) by addition of 10 µL plasma to samples taken from PBS and vice versa. Samples were stored on ice until the end of the incubation and precipitated protein was removed by centrifugation (15 min, 4 °C, 4,000 g, 2 centrifugation steps). Concentration of the remaining test compound at the different time points was analyzed by HPLC-MS/MS (Vanquish Flex coupled to a TSQ Altis Plus, Thermo Fisher, Dreieich, Germany). The amount of compound bound to protein was calculated using the equation PPB [%] = 100 – 100 x (amount in buffer chamber/amount in […]
To obtain information regarding the toxicity of test compounds, their impact on the viability of human cells was investigated. HepG2 cells (2x10^4 cells per well) were seeded in 96-well, flat-bottomed culture plates in 100 µL culture medium (DMEM containing 10% fetal calve serum, 1% penicillin-streptomycin). Twenty-four hours after seeding the cells, medium was removed and replaced by medium containing test compounds in a final DMSO concentration of 1%.
Compounds were tested in duplicates at a single concentration or, for CC 50 determination, at 8 concentrations that were prepared via 2-fold serial dilutions in 1% DMSO/medium. Epirubicin and doxorubicin were used as positive controls in serial dilutions starting from 10 µM, and rifampicin was used as a negative control (at 100 µM). […]

Rif^R-S. aureus Newman = experiment: microbe, parasite or virus in culture; format: cell-based; settings: Staphylococcus aureus
in vitro [4] = format: in vitro ADME; settings: plasma
Description: Figure S6: Metabolic stability in human liver microsomes with CYP isozyme involvement. (A) Human microsomal metabolism of MXY A (1) and (B) for MXY (8) in presence of 10 µM CYP inhibitors for CYP3A4 (ketoconazole), CYP1A2 (fluvoxamine), CYP2C9 (sulfaphenazole) or CYP2D6 (quinidine). The remaining test compound compared to t=0 min is given. (C) Corresponding half-lives (t1/2s) and fold increase compared to t1/2 of the compound in absence of inhibitors. Values represent means ± standard deviation (SD) of at least 3 independent measurements. *Mean half-life in presence of DMSO represents only assays where direct comparison to CYP inhibitors was performed; Table 2 of the main text includes additional replicates.
as §1, §2

in vitro [5] = settings: Wistar, rat, microsomes
[6] = Metabolic stability in liver microsomes; settings: Wistar, rat
[7] = Wistar, rat, microsomes, 2 h, 1 µM
[8] = Metabolic stability in liver microsomes; settings: C57BL/6, mouse
[9] = Metabolic stability in liver microsomes; settings: human
in vitro [10] = format: in vitro ADME; settings: plasma, pH 7.4
Description: Plasma protein binding was determined using the Rapid Equilibrium Dialysis (RED) system (Thermo Fisher Scientific, Waltham MA, USA). Compounds were diluted to 10 µM in 50% murine (CD-1), human or Wistar rat plasma (Neo Biotech, Nanterre, France) in PBS pH 7.4 and added to the respective chamber according to the manufacturer’s protocol, followed by addition of PBS pH 7.4 to the opposite chamber. Samples were taken immediately after addition to the plate as well as after 2, 4 and 5 h by mixing 10 µL with 80 µL ice-cold ice-cold […]
(1 picture or pasted object on this page, not shown here) […]
as §3, with “Germany).” for “Germany). The amount of compound bound to protein was calculated using the equation PPB [%] = 100 – 100 x (amount in buffer chamber/amount in”
Germany). To obtain percent viability for each sample, their ODs were related to those of DMSO controls. At least three independent measurements were performed for each compound. The calculation of CC50 was performed using the nonlinear regression function of GraphPad Prism 10 (GraphPad Software, San Diego, CA, USA).

wt-M. tuberculosis H37Rv = experiment: microbe, parasite or virus in culture; format: cell-based; settings: Mycobacterium tuberculosis
E. coli ΔtolC = experiment: microbe, parasite or virus in culture; format: cell-based; settings: Escherichia coli
in vitro [11] = settings: C57BL/6, mouse, microsomes
E. faecalis DSM-20478 = format: cell-based; settings: Enterococcus faecalis, DSM20478
M^R/V^R-S. aureus Mu50 = experiment: microbe, parasite or virus in culture; format: cell-based; settings: Staphylococcus aureus
[12] = human, 1 µM
[13] = stated as known, reference not given; cited from earlier work
[14] = Stability during large-scale production and isolation; settings: large-scale production, also with exclusion of light
Description: We initially attempted the large-scale production of furan analog 14.

COC(=O)N/C=C/CC[C@@H](C)c1cc(O)c(C(=O)/C(C)=C/C=C(\C)CCC(F)(F)F)c(=O)o1 [MYX (8)]
half-life at 1 µM (in vitro [1]): > 4 h | MIC (M^R -S. aureus N315): 2 to 4 µg/mL (≈ 4.24 to 8.48 µM) | MIC (wt-S. aureus Newman; NEWMAN): 2 µg/mL (≈ 4.24 µM) | microsomal CLint at 1 µM (in vitro [2]): 28 µL/min/mg | half-life at 1 µM (in vitro [3]): > 4 h | hepatocyte CLint at 1 µM (in vitro [3]): < 3.8 µL/min/1e6 cells | viability at 48 h, 100 µM (Cytotoxicity assay (MTT)): 44 ± 9% | MIC (Rif^R-S. aureus Newman): 2 µg/mL (≈ 4.24 µM) | half-life at 1 µM (in vitro [4]; CD-1, mouse): > 4 h | half-life at 1 µM (in vitro [4]; human): > 4 h | microsomal CLint at 1 µM (in vitro [5]): ~11.6 µL/min/mg | half-life at 1 µM [6]: ~2 h | Remaining amount of parent compound at 120 min [7]: 49 ± 13% | half-life at 1 µM [8]: 1.13 ± 0.117 h | half-life at 1 µM [9]: 0.867 ± 0.217 h | fraction unbound at 10 µM (in vitro [10]; CD-1, mouse): 0.0036 | fraction unbound at 10 µM (in vitro [10]; Wistar, rat): 0.0049 | fraction unbound at 10 µM (in vitro [10]; human): 0.0162 | MIC (wt-M. tuberculosis H37Rv): 2 µg/mL (≈ 4.24 µM) | MIC (E. coli ΔtolC): 4 µg/mL (≈ 8.48 µM) | microsomal CLint at 1 µM (in vitro [11]): 21 µL/min/mg | MIC (E. faecalis DSM-20478): > 64 µg/mL | MIC (M^R/V^R-S. aureus Mu50): 1 to 2 µg/mL (≈ 2.12 to 4.24 µM)

CCC/C(C)=C/C=C(\C)C(=O)c1c(O)cc([C@H](C)CC/C=C/NC(=O)OC)oc1=O [MYX A (1), myxopyronins A]
half-life at 1 µM (in vitro [1]): > 4 h | MIC (M^R -S. aureus N315): 4 µg/mL (≈ 9.58 µM) | MIC (wt-S. aureus Newman; NEWMAN): 2 to 4 µg/mL (≈ 4.79 to 9.58 µM) | microsomal CLint at 1 µM (in vitro [2]): 157 µL/min/mg | half-life at 1 µM (in vitro [3]): > 4 h | hepatocyte CLint at 1 µM (in vitro [3]): < 3.8 µL/min/1e6 cells | Liver microsomes Clint [12]: 211 ± 37 µL/min/mg | viability at 48 h, 100 µM (Cytotoxicity assay (MTT)): 39 ± 6% | MIC (Rif^R-S. aureus Newman): 2 µg/mL (≈ 4.79 µM) | half-life at 1 µM (in vitro [4]; CD-1, mouse): > 4 h | half-life at 1 µM (in vitro [4]; human): > 4 h | microsomal CLint at 1 µM (in vitro [5]): ~11.6 µL/min/mg | half-life at 1 µM [6]: ~2 h | Remaining amount of parent compound at 120 min [7]: 51 ± 12% | half-life at 1 µM [8]: 0.317 ± 0.0667 h | half-life at 1 µM [9]: 0.122 ± 0.0417 h | fraction unbound at 10 µM (in vitro [10]; CD-1, mouse): 0.0026 | fraction unbound at 10 µM (in vitro [10]; Wistar, rat): 0.0054 | fraction unbound at 10 µM (in vitro [10]; human): 0.0107 | MIC (wt-M. tuberculosis H37Rv): 4 µg/mL (≈ 9.58 µM) | MIC (E. coli ΔtolC): 1 to 2 µg/mL (≈ 2.4 to 4.79 µM) | microsomal CLint at 1 µM (in vitro [11]): 76 µL/min/mg | MIC (E. faecalis DSM-20478): > 64 µg/mL | MIC (M^R/V^R-S. aureus Mu50): 1 to 2 µg/mL (≈ 2.4 to 4.79 µM)

CCCC/C(C)=C/C=C(\C)C(=O)c1c(O)cc([C@H](C)CC/C=C/NC(=O)OC)oc1=O [MYX B (2)]
half-life in human liver microsomes [13]: 3 min

COC(=O)N/C=C/CC[C@@H](C)c1cc(O)c(C(=O)/C(C)=C/C=C(\C)c2ccoc2)c(=O)o1 [compound 14]
decomposition during fermentation and isolation [14]: highly susceptible to rapid decomposition

CO[C@H]1/C=C/O[C@@]2(C)Oc3c(C)c(O)c4c(O)c(c(/C=N/N5CCN(C)CC5)c(O)c4c3C2=O)NC(=O)/C(C)=C\C=C\[C@H](C)[C@H](O)[C@@H](C)[C@@H](O)[C@@H](C)[C@H](OC(C)=O)[C@@H]1C [rifampin]
MIC (M^R -S. aureus N315; methicillin-resistant S. aureus N315, read-out: MIC): 0.0025 µg/mL (≈ 0.00304 µM) | MIC (wt-S. aureus Newman; wt-S. aureus Newman, read-out: MIC): 0.005 µg/mL (≈ 0.00608 µM) | MIC (Rif^R-S. aureus Newman): > 64 µg/mL | MIC (wt-M. tuberculosis H37Rv): 0.03 µg/mL (≈ 0.0365 µM) | MIC (E. coli ΔtolC): 16 µg/mL (≈ 19.4 µM) | MIC (E. faecalis DSM-20478; E. faecalis DSM-20478, read-out: MIC): 1 µg/mL (≈ 1.22 µM) | MIC (M^R/V^R-S. aureus Mu50; methicillin- and vancomycin-resistant S. aureus Mu50, read-out: MIC): > 64 µg/mL
